Assay results reported in PubChem BioAssay AID256 (DTP/NCI, 2004).
“And” between values parts separate entries of the source, which are not always exact repeats. Equal entries are not always repeated. Inconclusive results and toxic doses are left out.

System: CD2F1 mice, L1210 leukemia ip, survival T/C
Experiment: NCI In Vivo Anticancer Drug Screen. Data for tumor model L1210 Leukemia (intraperitoneal) in CD2F1 (CDF1) mice
Settings: higher = longer survival
Summary of the method: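 Activity against a transplanted murine tumor was judged by comparing the compound group with a vehicle group. The outcome in the treated animals was divided by that in the controls.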

[1] = endpoint: mean survival time, dose: 50.0 mg/kg/injection, schedule: Q01DX009 (ip), vehicle: saline with Tween-80
[2] = endpoint: mean survival time, dose: 100.0 mg/kg/injection, schedule: Q01DX009 (ip), vehicle: saline with Tween-80
[3] = endpoint: mean survival time, dose: 100.0 mg/kg/injection, schedule: Q04DX003 (ip), vehicle: saline with Tween-80
[4] = endpoint: mean survival time, dose: 200.0 mg/kg/injection, schedule: Q04DX003 (ip), vehicle: saline with Tween-80
[5] = endpoint: mean survival time, dose: 100.0 mg/kg/injection, schedule: Q04DX002 (ip), vehicle: saline with Tween-80
[6] = endpoint: mean survival time, dose: 200.0 mg/kg/injection, schedule: Q04DX002 (ip), vehicle: saline with Tween-80
[7] = endpoint: mean survival time, dose: 200.0 mg/kg/injection, schedule: Q01DX009 (ip), vehicle: saline with Tween-80

CC[C@@]1(O)C(=O)OCc2c1cc1n(c2=O)Cc2cc3cc(O)ccc3nc2-1 was tested, and the T/C (endpoint: mean survival time, dose: 2.0 mg/kg/injection, schedule: Q04DX003 (ip), vehicle: other) was 155 % of control, the T/C (endpoint: mean survival time, dose: 4.0 mg/kg/injection, schedule: Q04DX003 (ip), vehicle: other) was 174 % of control and the T/C (endpoint: mean survival time, dose: 16.0 mg/kg/injection, schedule: Q04DX003 (ip), vehicle: other) was 107 % of control. For the same molecule, the T/C (endpoint: median survival time, dose: 1.25 mg/kg/injection, schedule: Q04DX002 (ip), vehicle: saline) was 184 % of control, the T/C (endpoint: median survival time, dose: 1.5 mg/kg/injection, schedule: Q04DX002 (ip), vehicle: saline) was 166 % of control and the T/C (endpoint: median survival time, dose: 2.5 mg/kg/injection, schedule: Q04DX002 (ip), vehicle: saline) was 162 % of control and 253 % of control. The T/C (endpoint: median survival time, dose: 3.0 mg/kg/injection, schedule: Q04DX002 (ip), vehicle: suspension in saline) was 150 % of control, the T/C (endpoint: median survival time, dose: 5.0 mg/kg/injection, schedule: Q04DX002 (ip), vehicle: saline) was 232 % of control and 301 % of control and the T/C (endpoint: median survival time, dose: 6.0 mg/kg/injection, schedule: Q04DX002 (ip), vehicle: suspension in saline) was 153 % of control. For the same molecule, the T/C (endpoint: median survival time, dose: 10.0 mg/kg/injection, schedule: Q04DX002 (ip), vehicle: saline) was 192 % of control and 209 % of control, the T/C (endpoint: median survival time, dose: 12.0 mg/kg/injection, schedule: Q04DX002 (ip), vehicle: suspension in saline) was 228 % of control and the T/C (endpoint: median survival time, dose: 20.0 mg/kg/injection, schedule: Q04DX002 (ip), vehicle: saline) was 184 % of control and 348 % of control. The T/C (endpoint: median survival time, dose: 40.0 mg/kg/injection, schedule: Q04DX002 (ip), vehicle: saline) was 102 % of control and the T/C (endpoint: median survival time, dose: 48.0 mg/kg/injection, schedule: Q04DX002 (ip), vehicle: suspension in saline) was 87 % of control.

COC(=O)c1ncn(C2OC(CO)C(O)C2O)n1 (configuration not stated) was tested, and the T/C (endpoint: median survival time, dose: 8.75 mg/kg/injection, schedule: Q01DX005 (ip), vehicle: water) was 100 % of control, the T/C (endpoint: median survival time, dose: 17.5 mg/kg/injection, schedule: Q01DX005 (ip), vehicle: water) was 96 % of control and the T/C (endpoint: median survival time, dose: 35.0 mg/kg/injection, schedule: Q01DX005 (ip), vehicle: water) was 97 % of control. For the same molecule, the T/C (endpoint: median survival time, dose: 70.0 mg/kg/injection, schedule: Q01DX005 (ip), vehicle: water) was 97 % of control and the T/C (endpoint: median survival time, dose: 140.0 mg/kg/injection, schedule: Q01DX005 (ip), vehicle: water) was 100 % of control.

O=P1(N(CCCl)CCCl)NCCC2(O1)C1CC3CC(C1)CC2C3 (configuration not stated) was tested, and the T/C (endpoint: mean survival time, dose: 15.6 mg/kg/injection, schedule: Q01DX001 (ip), vehicle: distilled water + Tween-80) was 97 % of control, the T/C (endpoint: mean survival time, dose: 31.3 mg/kg/injection, schedule: Q01DX001 (ip), vehicle: distilled water + Tween-80) was 96 % of control and the T/C (endpoint: mean survival time, dose: 62.5 mg/kg/injection, schedule: Q01DX001 (ip), vehicle: distilled water + Tween-80) was 99 % of control. For the same molecule, the T/C (endpoint: mean survival time, dose: 125.0 mg/kg/injection, schedule: Q01DX001 (ip), vehicle: distilled water + Tween-80) was 86 % of control and the T/C (endpoint: mean survival time, dose: 500.0 mg/kg/injection, schedule: Q01DX001 (ip), vehicle: distilled water + Tween-80) was 86 % of control.

For O=c1[nH]ccc2occc12, the T/C [1] was 101 % of control, the T/C [2] was 102 % of control and the T/C [3] was 105 % of control. For the same molecule, the T/C [4] was 109 % of control.

For CC(O)C1OC(n2cnc3c(ncn3C3OC(C(C)O)C(O)C3O)c2=O)C(O)C1O (configuration not stated), the T/C (endpoint: mean survival time, dose: 10.63 mg/kg/injection, schedule: Q01DX005 (ip), vehicle: water) was 102 % of control, the T/C (endpoint: mean survival time, dose: 21.25 mg/kg/injection, schedule: Q01DX005 (ip), vehicle: water) was 98 % of control and the T/C (endpoint: mean survival time, dose: 42.5 mg/kg/injection, schedule: Q01DX005 (ip), vehicle: water) was 102 % of control. For the same molecule, the T/C (endpoint: mean survival time, dose: 85.0 mg/kg/injection, schedule: Q01DX005 (ip), vehicle: water) was 101 % of control and the T/C (endpoint: mean survival time, dose: 170.0 mg/kg/injection, schedule: Q01DX005 (ip), vehicle: water) was 108 % of control.

With C=CCOc1cc2c(cc1C(C)c1ccc(OC)cc1)OCO2 (configuration not stated) the T/C (endpoint: median survival time, dose: 25.0 mg/kg/injection, schedule: Q01DX009 (ip), vehicle: Klucel (hydroxypropylcellulose) (HPC)) was 100 % of control and 103 % of control, the T/C (endpoint: median survival time, dose: 50.0 mg/kg/injection, schedule: Q01DX005 (ip), vehicle: Klucel (hydroxypropylcellulose) (HPC)) was 94 % of control and the T/C (endpoint: median survival time, dose: 50.0 mg/kg/injection, schedule: Q01DX009 (ip), vehicle: Klucel (hydroxypropylcellulose) (HPC)) was 120 % of control and 101 % of control and 104 % of control. For the same molecule, the T/C (endpoint: median survival time, dose: 50.0 mg/kg/injection, schedule: Q01DX009 (ip), vehicle: saline with Tween-80) was 105 % of control, the T/C (endpoint: median survival time, dose: 100.0 mg/kg/injection, schedule: Q01DX005 (ip), vehicle: Klucel (hydroxypropylcellulose) (HPC)) was 103 % of control and the T/C (endpoint: median survival time, dose: 100.0 mg/kg/injection, schedule: Q01DX009 (ip), vehicle: Klucel (hydroxypropylcellulose) (HPC)) was 105 % of control and 110 % of control. The T/C (endpoint: median survival time, dose: 100.0 mg/kg/injection, schedule: Q01DX009 (ip), vehicle: saline with Tween-80) was 107 % of control, the T/C (endpoint: median survival time, dose: 200.0 mg/kg/injection, schedule: Q01DX005 (ip), vehicle: Klucel (hydroxypropylcellulose) (HPC)) was 108 % of control and the T/C (endpoint: median survival time, dose: 400.0 mg/kg/injection, schedule: Q01DX005 (ip), vehicle: Klucel (hydroxypropylcellulose) (HPC)) was 118 % of control. For the same molecule, the T/C (endpoint: median survival time, dose: 400.0 mg/kg/injection, schedule: Q01DX009 (ip), vehicle: saline with Tween-80) was 124 % of control, the T/C (endpoint: median survival time, dose: 800.0 mg/kg/injection, schedule: Q01DX005 (ip), vehicle: Klucel (hydroxypropylcellulose) (HPC)) was 95 % of control and the T/C (endpoint: median survival time, dose: 800.0 mg/kg/injection, schedule: Q01DX009 (ip), vehicle: saline with Tween-80) was 98 % of control.

For CCOC(=O)C1C2OC(=O)C(C(=O)C2CN(CCCl)CCCl)C1C1CC=C(CC2=CCC(C3C4C(=O)OC(C(CN(CCCl)CCCl)C4=O)C3C(=O)OCC)CC2)CC1 (configuration not stated), the T/C (endpoint: mean survival time, dose: 6.25 mg/kg/injection, schedule: Q01DX009 (ip), vehicle: Klucel (hydroxypropylcellulose) (HPC)) was 121 % of control, the T/C (endpoint: mean survival time, dose: 12.5 mg/kg/injection, schedule: Q01DX009 (ip), vehicle: Klucel (hydroxypropylcellulose) (HPC)) was 121 % of control and the T/C (endpoint: mean survival time, dose: 50.0 mg/kg/injection, schedule: Q01DX009 (ip), vehicle: Klucel (hydroxypropylcellulose) (HPC)) was 154 % of control and 162 % of control. For the same molecule, the T/C (endpoint: mean survival time, dose: 100.0 mg/kg/injection, schedule: Q01DX009 (ip), vehicle: Klucel (hydroxypropylcellulose) (HPC)) was 154 % of control and 232 % of control, the T/C (endpoint: mean survival time, dose: 200.0 mg/kg/injection, schedule: Q01DX009 (ip), vehicle: Klucel (hydroxypropylcellulose) (HPC)) was 111 % of control and the T/C (endpoint: mean survival time, dose: 400.0 mg/kg/injection, schedule: Q01DX009 (ip), vehicle: Klucel (hydroxypropylcellulose) (HPC)) was 88 % of control.

For CCOC(=O)c1ccc(NCC2=Nc3c(N)nc(N)nc3NC2)cc1, the T/C (endpoint: mean survival time, dose: 12.5 mg/kg/injection, schedule: Q01DX001 (ip), vehicle: carboxymethylcellulose (CMC)) was 95 % of control, the T/C (endpoint: mean survival time, dose: 25.0 mg/kg/injection, schedule: Q01DX001 (ip), vehicle: carboxymethylcellulose (CMC)) was 108 % of control and the T/C (endpoint: mean survival time, dose: 50.0 mg/kg/injection, schedule: Q01DX001 (ip), vehicle: carboxymethylcellulose (CMC)) was 96 % of control.

For CC1Cc2c([nH]c3ccc(Cl)cc23)CN1 (configuration not stated), the T/C [5] was 86 % of control and the T/C [6] was 89 % of control.

In the case of COC12CCCC1S(=O)(=O)C2 (configuration not stated), the T/C (endpoint: mean survival time, dose: 25.0 mg/kg/injection, schedule: Q04DX003 (ip), vehicle: saline) is reported as 101 % of control, the T/C (endpoint: mean survival time, dose: 50.0 mg/kg/injection, schedule: Q04DX003 (ip), vehicle: saline) is reported as 108 % of control and the T/C (endpoint: mean survival time, dose: 100.0 mg/kg/injection, schedule: Q04DX003 (ip), vehicle: saline) is reported as 95 % of control.

For O=C(O)CCc1nc(-c2cccc(Br)c2)n[nH]1, the T/C [5] was 96 % of control, the T/C [6] was 107 % of control and the T/C (endpoint: mean survival time, dose: 400.0 mg/kg/injection, schedule: Q04DX002 (ip), vehicle: saline with Tween-80) was 103 % of control.

For CCOC(=O)C(Cc1ccccc1Cl)(NC(C)=O)C(=O)OCC, the T/C [3] was 100 % of control, the T/C [4] was 102 % of control and the T/C (endpoint: mean survival time, dose: 400.0 mg/kg/injection, schedule: Q04DX003 (ip), vehicle: saline with Tween-80) was 91 % of control.

CN(C)c1ccc(/C=C/c2ccncc2)cc1 was tested, and the T/C [2] was 95 % of control, the T/C [7] was 96 % of control and the T/C (endpoint: mean survival time, dose: 400.0 mg/kg/injection, schedule: Q01DX009 (ip), vehicle: saline with Tween-80) was 89 % of control.

In the case of CCCOCCN=C(N)C(N)=NCCOCCC, the T/C (endpoint: mean survival time, dose: 12.5 mg/kg/injection, schedule: Q04DX002 (ip), vehicle: saline with Tween-80) is reported as 97 % of control, the T/C (endpoint: mean survival time, dose: 25.0 mg/kg/injection, schedule: Q04DX002 (ip), vehicle: saline with Tween-80) is reported as 89 % of control and the T/C (endpoint: mean survival time, dose: 50.0 mg/kg/injection, schedule: Q04DX002 (ip), vehicle: saline with Tween-80) is reported as 97 % of control.

In the case of CCc1c(C)[nH]c2ccc([N+](=O)[O-])cc12, the T/C [1] is reported as 103 % of control, the T/C [2] is reported as 94 % of control and the T/C [3] is reported as 100 % of control. The T/C [7] was 97 % of control and the T/C [4] was 93 % of control.

For COc1cc2c(c(OC)c1OC)-c1ccc(OC)c(=O)cc1[C@@H](NC(=O)CF)CC2, the T/C (endpoint: mean survival time, dose: 0.37 mg/kg/injection, schedule: Q01DX009 (ip), vehicle: saline) was 109 % of control.
